Several values for one entry are separate records, joined by “and”; a condition that tells them apart may be missing. Equal values may be shown once. Read-outs that look alike come from different tables or passages of the source.
Key:
[1] = Human hepatoma viability assay (CellTiter-Blue); format: cell-based; conditions: human, replicate data points, read-out: Huh7 viability, dose-response data points (Figure 3F); for viability at 48 h, 0.137174 µM: 0.137174210 uM
Method in brief: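 Huh7 cells (10,000/well) were seeded and treated the next day with serially diluted compound or DMSO, with media partially renewed with fresh dilutions over two days.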

[2] = system: human foreskin fibroblasts (HFF); test: Human foreskin fibroblast growth inhibition assay (SYBR Safe); format: cell-based; conditions: 72 h; for IC50: Homo sapiens, Fibroblast, read-out: IC50, human fibroblast growth inhibition
Description: HFF cell growth inhibition assays commenced by adding 5000 cells to each well of a 96-well plate. 10 µg/mL cycloheximide was used as a no-growth control. DNA replication (indicating growth) was measured at the specified time using SYBR Safe DNA Gel Stain (Invitrogen 33102) and a fluorescence microplate reader. […]
Human Foreskin Fibroblast Growth Inhibition Assays:
The HFF cell line was maintained under routine culture conditions in DMEM containing 3.7 g/L NaHCO3 supplemented with 10% v/v newborn calf serum (NCS), 50 units/mL penicillin, 50 μg/mL streptomycin, 10 μg/mL gentamicin, 0.25 μg/mL amphotericin B, and 0.2 mM L-glutamine at 37 °C in a humidified 5% CO2 incubator. […]
HFF cells were detached from a flask using 0.25% Trypsin with 0.2 g/L EDTA (Sigma T4049) and washed with culture media. Cells were incubated with a serial dilution of each compound, or media/DMSO alone. Cycloheximide at 10 µg/mL was used as a positive control to determine background fluorescence. Approximately 5 000 cells were seeded in each well. Plates were incubated at 37 °C for 72 hours (until reaching confluency) and the media was removed. Plates were transferred to a -18 °C freezer. Plates were thawed and SYBR Safe DNA Gel Stain (final concentration 1/10,000) diluted in lysis buffer (as above) was added. Fluorescence was read at 490 nm excitation/ 520 nm emission on a FLUOstar Optima fluorescence plate reader. […]

[3] = system: P. berghei liver stage parasites; test: P. berghei liver stage parasite size and number (fluorescence microscopy, coverslips); format: cell-based, Plasmodium berghei; conditions: for Normalised mean size of liver stage parasites, percentage of the solvent control: per coverslip, source data Fig. 3C
Description: Uninfected wells served as a control for background luminescence. […] No other manipulations were performed.
Appendix Fraser/Curtis et al.
For measurement of parasite size and number, 20,000 Huh7 cells were seeded onto collagen-coated coverslips on the day prior to infection. As above, 10,000 – 20,000 sporozoites were added per slide, allowed to invade for 60 minutes after centrifugation, and then incubated for […]
Infected cells were fixed with 3% paraformaldehyde in PBS, permeabilized with 0.3% v/v Triton X-100, and labelled with 1:1,000 polyclonal chicken anti-GFP (Abcam ab13970), 1:2,000 goat anti-chicken Alexa […]
intrinsic GFP fluorescence could be detected, as well as Fluoromount-G® containing 4′,6-diamidino-2-phenylindole (DAPI; Southern Biotech), to stain parasite and host cell nuclei.
Images were collected on a Zeiss Axio Observer Z2 microscope with a Zeiss AxioCam MRm at 200× or 400× (for quantification) or 630× (for cell images) magnification, with a resolution of […], 163 nm or 102 nm per pixel respectively. Alexa Fluor™ 546 fluorescence was detected at 546/13 nm excitation and 675/35 nm emission. […]
fluorescence was detected at 470/20 nm excitation and 525/25 nm emission. DAPI fluorescence (nucleic acid) was detected at 359/24 nm ex and 445/25 nm em. For quantification, all cells on each coverslip were imaged under the same settings for each experiment. P. berghei liver stage size was measured as described (24) using Fiji ImageJ (25). Liver-stage parasites were identified and delineated in fluorescent images using defined threshold levels, and the identified fluorescent areas were used to measure parasite area. The number of parasites on each coverslip was also counted. […]
manipulations were performed.

COc1cc(NC(C)CCCNC(=O)CCC(=O)O[C@H]2CC[C@H]3[C@@H]4CC=C5C[C@@H](O)CC[C@]5(C)[C@H]4CC[C@]23C)c2ncccc2c1 (stereo partly shown) [C-17-PQ]
viability at 48 h, 0.0152416 µM ([1]; 0.015241580 uM): 94.8%
viability at 48 h, 0.0457247 µM ([1]; 0.045724740 uM): 94.9%
viability at 48 h, 0.137174 µM [1]: 95.3%
viability at 48 h, 0.411523 µM ([1]; 0.411522630 uM): 94.5%
Maximal inhibition of fibroblast growth at the range of concentrations tested ([2]; HFF): ≤ 30%
IC50 [2]: > 290 µM
Reduction of parasite size (area) compared to untreated parasites ([3]; 0.3 µM, 48 h): 48%
Normalised mean size of liver stage parasites, percentage of the solvent control ([3]; 0.3 μM, 48 h, listed as BC5B): 47.88% and 39.55% and 51.73% and 68.26% and 63.53% and 38.56%
Reduction of parasite size (area) compared to untreated parasites ([3]; 3 µM, 48 h): 90%
Parasite number per coverslip compared to the same concentration of primaquine ([3]; 0.3 or 3 µM, 48 h): significantly lower

CC(C)OC(=O)CCC(=O)O[C@H]1CC[C@H]2[C@@H]3CC=C4C[C@@H](O)CC[C@]4(C)[C@H]3CC[C@]12C [C-17-link]
Inhibition of fibroblast growth ([2]; HFF): no notable inhibition
IC50 [2]: > 75 µM

COc1cc(NC(C)CCCNC(=O)CCC(=O)OC(C)C)c2ncccc2c1 (stereo not shown) [PQ-link]
viability at 48 h, 0.137174 µM ([1]; Huh7 hepatoma cells): 99.3%
IC50 ([2]; HFF): 98.2 µM

COc1cc(NC(C)CCCN)c2ncccc2c1 (stereo not shown) [Primaquine, primaquine, reference compound]
IC50 ([2]; HFF): 41.8 µM
Reduction of parasite size (area) compared to untreated parasites ([3]; 0.3 µM, 48 h): not at 0.3 µM
Normalised mean size of liver stage parasites, percentage of the solvent control ([3]; 0.3 μM, 48 h): 100% and 99.34% and 108% and 106.3% and 110.6% and 86.33%
Figure 3C - Individual Data Points (P. berghei liver stage parasite size, individual parasites) ([3]; 0.3 μM, Assay 2, first replicate column, individual data points): 43.02 and 107.9 and 92.89 and 48.67 and 95.55 and 31.33 and 39.11 and 132.2 and 73.2 and 29.42
Reduction of parasite size (area) compared to untreated parasites ([3]; 3 µM, 48 h): 61%

Reference: article PMC11251039, “Harnessing cholesterol uptake of malaria parasites for therapeutic applications” (EMBO Molecular Medicine, 2024)
